From patent publication US6482851B1, “Synthesis of dysidiolide and uses thereof” (Sloan-Kettering Institute for Cancer Research, priority 1998, dated 2002)

Tests used:
[1] = system: MX1 tumor xenografts; assay: MX1 tumor xenografts in nude mice; type: in vivo; settings: Sixty three mg/kg
Protocol: Dysidiolide inhibited the growth of MX1 tumor xenografts in nude mice. Sixty three mg/kg dysidiolide inhibited (A) tumor growth by 70% while (B) animal weight (and indication of overall toxicity) remained higher than 90% of controls.
Therapeutic Effects of Dysidiolide and Taxol in Nude Mice bearing MX-1. MX-1 cell 50 μg was implanted s.c. on day 0. Every other day i.v. treatments were given on day 3,5,7,9 and 11. The average tumor volume of control group on day 3, 7, 9, 11 and 13 were 62, 75, 113, 155 and 264 mm^3, respectively. Solvents: Dysidiolide [20-40 μl DMSO+100 μl (Cremophor: EtOH=1:1)+Saline] Taxol [Clinical use (Cremophor+EtOH=1:1)+Saline].

[2] = system: Cdk4; assay: Cdk4 kinase activity on immunoprecipitates from treated MCF7 cells; type: cell-based, human; settings: 50 μM, 24 hr
Protocol: (§1) Effect of a 24 hr treatment with 50 μM dysidiolide on the kinase activity of Cdk4, Cdk2 and Cdc2. Cdk were immunoprecipitated from MCF7 cell lysates obtained from cultures treated or not with dysidiolide for 24 hr. Histone H1 was used as substrate for Cdk2 and Cdc2, whereas GST-Rb was the substrate for Cdk4.
(§2) To further characterize the effects of dysidiolide on cell cycle control, experiments were conducted at the molecular level. As Cdc25s (A, B and C) are positive regulators of cyclin-dependent kinases (Cdk) (reviewed in Draetta and Eckstein, BBA 1332: M53-M63, 1997) inhibition of Cdc25 is expected to result in inhibition of Cdk activity. MCF7 cells were treated with 2 or 10 μM dysidiolide or with DMSO (controls) for 2 or 4 hr. Cell extracts were used to measure the steady-state levels of Cdc25 A and C, and Cdk activity. […] However, a decrease in the levels of Cdc25 C (but not on A) was clearly noticeable (FIG. 9B). In the next experiment MCF7 cells were treated for 24 hr with 50 μM dysidiolide or with DMSO (control) for 24 hr. […] On the other hand, at these more stringent conditions, inhibition of Cdk2, Cdk4 and Cdc2 protein kinase activities was observed (FIG. 10A and FIG. 10B).

[3] = system: Cdc2; assay: Cdc2 kinase activity on immunoprecipitates from treated MCF7 cells; type: cell-based, human; settings: 50 μM, 24 hr
Protocol: as §1, §2

[4] = system: TSU-Pr1 cells; assay: BrdU pulse-label FACS of TSU-Pr1 cells; type: cell-based, human; settings: 3.33 μM, 24 hours
Protocol: (§3) TSU-Pr1 cells were treated for 24 hours with either DMSO or 3.33 μM dysidiolide. Cells were pulse-labeled for 30 min with bromodeoxyuridine (BrdU) and analyzed by FACS. The R@ window contains BRDU-positive, S-phase cells. Consistent with the proposed inhibitory effect of dysidiolide on the positive cell cycle regulator Cdc25. the drug inhibited the activity of cyclin-dependent kinases (Cdk). Cdk4, 6 and 2 were immunoprecipitated from DMSO- or drug-treated TSU-Pr1 cell cultures. Activity was examined in vitro kinase assays. The activity of the three Cdks was inhibited in drug-treated cells, as early as 3 hours in drug.

[5] = system: Cdk4; assay: in vitro kinase assay of Cdk4 immunoprecipitated from treated TSU-Pr1 cells; type: cell-based, human; settings: 3.33 μM, TSU-Pr1, as early as 3 hours in drug
Protocol: as §3
In vitro kinase assays of Cdk. TSU-Pr1 cells were treated with 3.33 μM dysidiolide for 0-24 hours. Samples were collected at various times and the activity of Cdk4, 6 and 2 was determined. Cdks were immunoprecipitated with specific antibodies and incubated with radiolabeled ATP plus either histH1 (for Cdk2) or GST-Rb (for Cdk4 and 6). Reactions were separated on SDS-polyacrylamide gels and the amount of phosphorylated product was determined by radiometric analysis.

[6] = molecular target: T1, human cdc25A protein phosphatase (Homo sapiens, UniProt P30304); settings: cited from earlier work
T1 sequence (P30304 1-524): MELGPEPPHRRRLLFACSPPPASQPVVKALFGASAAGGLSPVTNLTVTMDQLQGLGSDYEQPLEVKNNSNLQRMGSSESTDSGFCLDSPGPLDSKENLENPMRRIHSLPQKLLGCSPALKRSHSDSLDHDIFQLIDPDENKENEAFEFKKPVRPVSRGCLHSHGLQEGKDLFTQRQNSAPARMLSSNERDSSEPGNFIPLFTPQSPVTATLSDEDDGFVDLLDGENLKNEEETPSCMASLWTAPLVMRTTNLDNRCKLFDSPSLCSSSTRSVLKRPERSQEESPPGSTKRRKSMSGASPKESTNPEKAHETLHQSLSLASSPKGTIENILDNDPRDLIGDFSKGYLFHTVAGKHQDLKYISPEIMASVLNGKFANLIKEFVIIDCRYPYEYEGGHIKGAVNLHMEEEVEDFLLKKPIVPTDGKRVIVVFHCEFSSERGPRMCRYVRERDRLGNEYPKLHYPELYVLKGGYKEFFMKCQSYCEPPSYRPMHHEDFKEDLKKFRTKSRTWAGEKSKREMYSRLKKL

C=C(C)CCC[C@@]1(C)CCC[C@H]2C1=CC[C@H](C)[C@]2(C)C[C@H](O)C1=CC(=O)O[C@@H]1O (racemic) [dysidiolide]
animal weight (indication of overall toxicity) [1]: higher than 90 % of controls
tumor growth inhibition [1]: 70%
Cdk4 protein kinase activity [2]: inhibition
Cdc2 protein kinase activity [3]: inhibition
cell cycle arrest [4]: induces G1 arrest
Cdk4 activity [5]: inhibited
inhibition of human cdc25A protein phosphatase [6]: potent inhibitor
